The values below come from patent EP0575844B1, “Hydroxamic acid derivatives and pharmaceutical compositions thereof” (F. HOFFMANN-LA ROCHE AG, priority 1992, dated 1993).

Where two headings read alike, the source gives them in different places.

For experiment [1], the target named is T1, Stromelysin (Homo sapiens, UniProt P08254). In words: Stromelysin (Test A), 14C-acetylated b-casein substrate digestion. As to conditions: read-out: Test A IC50 (mol). The format is biochemical. The procedure: Prostromelysin was purified from human fibroblast culture medium by prostromelysin antibody affinity chromatography [Ganja-Smith Z, Nagase H, Woessner J F Jr., Biochem J. 1989, vol 285 (1), pp 115-119]. The latent pro-enzyme was activated by incubation with trypsin (5 mg/ml) at 25°C for 2 hours and after this time the trypsin was inactivated using a ten-fold excess of soya bean trypsin inhibitor. The inhibitory activity of the aforementioned hydroxamic acid derivatives was determined using ^14C-acetylated b-casein substrate. The stromelysin (5 nM) was added to a solution of substrate (4 mg/ml) in 25 mM Tris HCl buffer, pH 7.5, containing 10 mM CaCl2 and 0.05% Brij®. The solution obtained was incubated at 37°C for 20 hours. Enzyme digestion of the substrate was terminated by the addition of 45% trichloroacetic acid and the precipitated undigested substrate was pelleted by centrifugation at 10000 g for 0.25 hour. The supernatant was aspired and ^14C activity was determined by liquid scintillation spectrometry. The IC50 is that concentration of hydroxamic acid derivative in the enzyme digestion which reduces the substrate cleavage to 50% of that achieved by the enzyme alone.
T1 sequence (P08254 100-477): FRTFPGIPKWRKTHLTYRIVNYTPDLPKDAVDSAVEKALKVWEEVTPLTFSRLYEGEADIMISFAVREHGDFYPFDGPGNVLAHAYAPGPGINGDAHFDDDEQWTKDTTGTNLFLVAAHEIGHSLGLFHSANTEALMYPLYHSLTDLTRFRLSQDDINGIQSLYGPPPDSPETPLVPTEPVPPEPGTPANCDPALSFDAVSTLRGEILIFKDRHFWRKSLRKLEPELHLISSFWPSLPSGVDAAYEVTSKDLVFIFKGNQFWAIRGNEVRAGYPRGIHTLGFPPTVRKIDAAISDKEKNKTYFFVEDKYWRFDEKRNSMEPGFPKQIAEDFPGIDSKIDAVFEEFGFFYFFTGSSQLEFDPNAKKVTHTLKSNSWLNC

Experiment [2] has as its target T1, Stromelysin. Nature of the experiment: biochemical. The procedure:
The latent pro-enzyme (30 µg/ml) was activated by incubation with trypsin (0.5 µg/ml) for 30 minutes at 25°C and then the trypsin was inactivated using a twenty-fold excess of trypsin inhibitor. The inhibitory activity of the hydroxamic acid derivatives was determined using the fluorescent peptide substrate (7-methoxycoumarin-4-yl)acetyl-L-prolyl-L-leucyl-L-alanyl-L-[…]-[3-(2,4-dinitrophenyl)-L-2,3-diaminopropyl]-L-arginyl-L-arginine. The stromelysin (final concentration 35 ng/ml) was added to a solution of substrate ([…]) and varying concentrations of hydroxylamine derivative in 50mM Tris HCl buffer, pH 7.5 containing 200 mM Na Cl, 10mM CaCl2, 0.05% Brij 35 and 5% methanol. This solution was incubated for 16 hours at 37°C. Product formation was determined by spectrofluorometry using an excitation wavelength of 325 nm and an emission wavelength of 395 nm. The IC50 is that concentration of hydroxylamine derivative which reduces the substrate cleavage to 50% of that achieved by the enzyme alone.

In a further experiment the target is gelatinase B (Homo sapiens, UniProt P14780). In words: biochemical. The procedure: Pro-gelatinase B was purified from human neutrophils by first separating the neutrophils from human blood by density centrifugation and dextran sedimentation. The separated neutrophils were disrupted by combined treatment with 0.05% Triton X-100® and sonification Cell debris was then removed by high speed centrifugation. […] The gelatinase B was incubated overnight at 37°C with 1mM p-aminophenylmercuric acetate. The inhibitory activity of the present hydroxamine derivatives was determined using the synthetic substrate N-acetyl-Pro-Gln-Gly-Leu-Leu-Gly ethyl ester for this enzyme. The gelatinase was added to a solution of 0.25 mM of substrate in 50mM borate buffer (pH 7.5) containing 1 mM calcium chloride and a known concentration of hydroxylamine derivative. The resulting solution was incubated at 37°C for 16 hours. Enzymic activity was terminated by addition of an equal volume of 2% (w/v) sodium hydrogen carbonate solution in 50% aqueous methanol containing 0.05% (w/v) of picrylsulphonic acid. The solution obtained was incubated at 37°C for a further 1 hour and the reaction was then terminated and stabilized by acidification with 1N hydrochloric acid. The concentration of trinitrophenyl-Leu-Leu-Gly ethyl ester formed was determined by spectrophotometry at 335 nm. The IC50 is that concentration of hydroxylamine derivative which reduces substrate cleavage to 50% of that achieved by the enzyme alone.
gelatinase B, sequence (P14780 94-707): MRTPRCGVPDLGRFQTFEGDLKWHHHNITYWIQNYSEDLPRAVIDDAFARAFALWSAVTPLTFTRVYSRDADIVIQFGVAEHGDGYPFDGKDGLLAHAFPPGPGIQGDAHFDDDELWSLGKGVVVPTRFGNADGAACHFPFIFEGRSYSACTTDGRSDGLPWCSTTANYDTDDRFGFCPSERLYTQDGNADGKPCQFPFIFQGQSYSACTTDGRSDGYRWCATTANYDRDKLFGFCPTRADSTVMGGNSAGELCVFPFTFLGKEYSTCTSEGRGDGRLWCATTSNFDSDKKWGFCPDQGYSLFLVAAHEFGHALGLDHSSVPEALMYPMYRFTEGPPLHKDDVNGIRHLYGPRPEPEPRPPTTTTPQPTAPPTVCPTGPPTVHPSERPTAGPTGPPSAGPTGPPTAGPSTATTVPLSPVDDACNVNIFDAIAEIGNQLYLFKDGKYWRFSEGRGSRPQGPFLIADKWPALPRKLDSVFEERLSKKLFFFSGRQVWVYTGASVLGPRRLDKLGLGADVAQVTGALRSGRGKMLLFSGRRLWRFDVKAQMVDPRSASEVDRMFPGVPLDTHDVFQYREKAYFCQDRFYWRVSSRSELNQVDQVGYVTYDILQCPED

Where [3] appears, read: gelatinase B from human neutrophils, 0.25 mM substrate, pH 7.5, 37°C, 16 hours, * = IC50 limited by mutual depletion of the enzyme, read-out: Test C IC50 (mol).

Consider `CCCCCCCC(CC(=O)NO)C(=O)N[C@@H](CC(C)C)C(=O)N[C@@H](CC(C)C)C(=O)NCC` (single isomer, unassigned) [Compound A, [4-(N-Hydroxyamino)-2(R or S)-heptylsuccinyl]-L-leucyl-L-leucine ethylamide], for which the concentration for half-maximal inhibition (IC50) (in general, the point on the concentration scale where inhibition reaches its midpoint) came to 33 nM on Stromelysin [1], 12.5 nM on Stromelysin [2] and 320 nM against gelatinase B.
The matching figures for `CCCCCCCCCC(CC(=O)NO)C(=O)N[C@@H](CC(C)C)C(=O)N[C@@H](CC(C)C)C(=O)NCC` (single isomer, unassigned) [Compound B, [4-(N-Hydroxyamino)-2(R or S)-nonylsuccinyl]-L-leucyl-L-leucine ethylamide]: 26 nM, 9.3 nM and 50 nM.
`CCCCCCCC(C(=O)N[C@@H](CC(C)C)C(=O)N[C@@H](CC(C)C)C(=O)NCC)[C@H](C)C(=O)NO` (single isomer, unassigned) [Compound C, [4-(N-Hydroxyamino)-2(R or S)-heptyl-3(S)-methylsuccinyl]-L-leucyl-L-leucine ethylamide]: the figures for the IC50 on Stromelysin [1] and against Stromelysin [2] were 11 nM and 2.3 nM, respectively.
The matching figures for `CCCCCCC[C@@H](C(=O)N[C@@H](CC(C)C)C(=O)N[C@@H](CC(C)C)C(=O)NCC)C(CN1C(=O)c2ccccc2C1=O)C(=O)NO` (single isomer, unassigned) [Compound D, [4-(N-Hydroxyamino)-2(R)-heptyl-3(R or S)-(phthalimidomethyl)succinyl]-L-leucyl-L-leucine ethylamide]: 10 nM and 0.59 nM.
For the molecule `CCCCCCC[C@@H](C(=O)N[C@H](C(=O)NC)C(C)(C)C)C(CN1C(=O)c2ccccc2C1=O)C(=O)NO` (single isomer, unassigned) [Compound G, [4-(N-Hydroxyamino)-2(R)-heptyl-3(R or S)-(phthalimidomethyl)succinyl]-L-tert-butylglycine methylamide], the IC50 worked out at 1.2 nM at Stromelysin [2] (stromelysin 35 ng/ml, fluorescent peptide substrate, pH 7.5, 37°C, 16 hours, * = IC50 limited by mutual depletion of the enzyme, read-out: Test B IC50 (mol)) and 0.9 nM at gelatinase B (setting [3]).
Turning to `CCCCCCC[C@@H](C(=O)N[C@@H](CC(C)C)C(=O)N[C@@H](CC(C)C)C(=O)NCC)C(CCCc1ccccc1)C(=O)NO` (single isomer, unassigned) [Compound H, [4-(N-Hydroxyamino) 2(R)-heptyl-3(R or S)-(3-phenylpropyl)succinyl]-L-leucyl-L-leucine ethylamide], on Stromelysin [2], the IC50 stood at 0.66 nM.
Regarding `CCCCCCCC(CC(=O)NO)C(=O)N[C@@H](Cc1ccccc1)C(=O)NC` (stereo partly drawn) [Compound F, [4-(N-Hydroxyamino)-2(RS)-heptylsuccinyl]-L-phenylalanine methylamide], the IC50 against Stromelysin [2] was found to be 22 nM; at gelatinase B (setting [3]) it was 3.2 nM.
